From patent US6605634B2 (Amgen, Inc., priority 1996, dated 2003) come the findings set out here.

A value given as a limit tells only on which side of the number the result lay.

For the test, the system named is production of tumor necrosis factor (TNF) by monocytes activated with bacterial lipopolysaccharide (LPS). In words: Lipopolysaccharide-activated Monocyte TNF Production Assay. It counts as cell-based. The conditions noted are these: Homo sapiens, TNF in culture supernatants by ELISA, read-out: IC50 (concentration of test compounds causing a 50% reduction in TNF production). Here is the method: Lipopolysaccharide-activated Monocyte TNF Production Assay
Test compounds were evaluated in vitro for the ability to inhibit the production of tumor necrosis factor (TNF) by monocytes activated with bacterial lipopolysaccharide (LPS). Fresh residual source leukocytes (a byproduct of plateletpheresis) were obtained from the local blood bank and peripheral blood mononuclear cells (PBMCs) were isolated by density gradient centrifugation on Ficol-Paque Plus (Pharmacia). PBMCs were suspended at 2×10^6/ml in DMEM supplemented to contain 2% FCS (10 mM), 0.3 mg/ml glutamate, 100 U/ml penicillin G and […] streptomycin sulfate (complete media). Cells were plated into Falcon flatbottom 96 well culture plates (200 μl/well) and cultured overnight at 37° C. and 6% CO2. Nonadherent cells were removed by washing with 200 μl/well of fresh medium. Wells containing adherent cells (˜70% monocytes) were replenished with 100 μl of fresh medium.
Preparation of Test Compound Stock Solutions
Test compounds were dissolved in […]. Compound stock solutions were prepared to an initial concentration of […]. Stocks were diluted initially to 20-200 μM in complete media. Nine two-fold serial dilutions of each compound were then prepared in complete medium.
Treatment of Cells with Test Compounds and Activation of TNF Production with Lipopolysaccharide
One hundred microliters of each test compound dilution were added to microtiter wells containing adherent monocytes and 100 μl complete medium. Monocytes were cultured with test compounds for 60 min at which time 25 μl of complete medium containing 30 ng/ml lipopolysaccharide from E. coli K532 were added to each well. Cells were cultured an additional 4 hrs. Culture supernatants were then removed and TNF present in the supernatants was quantified using an ELISA.
Flat bottom 96 well Coming High Binding ELISA plates were coated overnight (4° C.) with 150 μL/well of 3 μg/ml murine anti-human TNFa MAb (R&D Systems #MAB210). Wells were then blocked 1 h at room temperature with 200 μL/well of CaCl2-free ELISA buffer supplemented to contain 20 mg/ml BSA (standard ELISA buffer: […], 150 mM NaCl, 2 mM CaCl2, 0.15 mM thimerosal, pH 7.4). Plates were washed and replenished with 100 μl of test supernatants (diluted 1:3) or standards. Standards consisted of eleven 1.5-fold serial dilutions from a stock of 1 ng/ml recombinant human TNF (R&D Systems). Plates were incubated at room temperature for 1 h on orbital shaker (300 rpm), washed and replenished with 100 μl/well of 0.5 jig/ml goat anti-human TNFa (R&D systems #AB-210-NA) biotinylated at a 4:1 ratio. Plates were incubate for 40 min, washed and replenished with 100 μl/well of alkaline phosphatase-conjugated streptavidin (Jackson ImmunoResearch #016-050-084) at 0.02 μg/ml. Plates were incubated 30 min, washed and replenished with 200 μl well of 1 mg/ml of p-nitrophenyl phosphate. After 30 min, plates were read at 405 nm on a Vmax plate reader.
Standard curve data were fit to a second order polynomial and unknown TNF-a concentrations determined from their OD by solving this equation for concentration. TNF concentrations were then plotted Vs test compound concentration using a second order polynomial. This equation was then used to calculate the concentration of test compounds causing a 50% reduction in TNF production.
Background: ELISA stands for enzyme-linked immunosorbent assay.
As for `NC(Cc1ccccc1)C(=O)Nc1ccc2c(-c3ccncc3)c(-c3ccc(F)cc3)[nH]c2n1` (racemic) [Compound 87, 6-(3′-phenyl-1′-oxo-2′-D,L-aminopropylamino)-3-(4-pyridyl)-2-(4-fluorophenyl)-7-aza-indole], the IC50 is less than 20 µM.

For `CC(CNc1ccc2c(-c3ccncc3)c(-c3ccc(F)cc3)[nH]c2n1)c1ccccc1` (racemic) [Compound 147, 6-(2′(R,S)-phenylpropylamino)-3-(4-pyridyl)-2-(4-fluorophenyl)-7-aza-indole], the IC50 was less than 20 µM.

As for `CCCCC(CC)CNc1ccc2c(-c3ccncc3)c(-c3ccc(F)cc3)[nH]c2n1` (racemic) [Compound 148, 6-(2′(R,S)-ethylhexylamino)-3-(4-pyridyl)-2-(4-fluorophenyl)-7-aza-indole], the IC50 was less than 20 µM.

For `Fc1ccc(-c2[nH]c3ccccc3c2-c2ccncc2)cc1` [Compound 3, 3-(4-pyridyl)-2-(4-fluorophenyl)indole], the IC50 is less than 20 µM.

With `Nc1ccc2c(-c3ccncc3)c(-c3ccc(F)cc3)[nH]c2n1` [Compound 17, 6-Amino-3-(4-pyridyl)-2-(4-fluorophenyl)-7-aza-indole], the IC50 is less than 1 µM.

In the case of `Nc1ccc2c(-c3ccc(F)cc3)c(-c3ccncc3)[nH]c2n1` [Compound 18, 6-Amino-3-(4-fluorophenyl)-2-(4-pyridyl)-7-aza-indole], the IC50 is less than 20 µM.

For the compound `CC(C)(C)OC(=O)NCCCC(=O)Nc1ccc2c(-c3ccncc3)c(-c3ccc(F)cc3)[nH]c2n1` [Compound 21, 6-(4′-t-butoxycarbonylamino-1′-oxo-butylamino)-3-(4-pyridyl)-2-(4-fluorophenyl)-7-aza-indole], the IC50 was less than 20 µM.

Turning to `NCCCC(=O)Nc1ccc2c(-c3ccncc3)c(-c3ccc(F)cc3)[nH]c2n1` [Compound 22, 6-(4′-amino-1′-oxo-butylamino)-3-(4-pyridyl)-2-(4-fluorophenyl)-7-aza-indole], the IC50 was less than 20 µM.

For `Nc1nc2[nH]c(-c3ccc(F)cc3)c(-c3ccncc3)c2cc1Br` [Compound 27, 6-Amino-5-bromo-3-(4-pyridyl)-2-(4-fluorophenyl)-7-aza-indole], the IC50 is less than 20 µM.

For `Nc1nc2[nH]c(-c3ccc(F)cc3)c(-c3ccncc3)c2cc1F` [Compound 28, 6-Amino-5-fluoro-3-(4-pyridyl)-2-(4-fluorophenyl)-7-aza-indole], the IC50 is less than 20 µM.

Consider `CC(C)(C)OC(=O)NCC(=O)Nc1ccc2c(-c3ccncc3)c(-c3ccc(F)cc3)[nH]c2n1` [Compound 29, 6-(2′-t-butoxycarbonylamino-1′-oxo-ethylamino)-3-(4-pyridyl)-2-(4-fluorophenyl)-7-aza-indole], for which the IC50 was less than 20 µM.

For the compound `NC(=O)NCCC[C@H](N)C(=O)Nc1ccc2c(-c3ccncc3)c(-c3ccc(F)cc3)[nH]c2n1` [Compound 65, 6-(5′-ureido-1′-oxo-2′-aminopentylamino)-3-(4-pyridyl)-2-(4-fluorophenyl)-7-aza-indole], the IC50 is less than 20 µM.

`CC(C)(C)OC(=O)NCCCC[C@H](NC(=O)OC(C)(C)C)C(=O)Nc1ccc2c(-c3ccncc3)c(-c3ccc(F)cc3)[nH]c2n1` [Compound 66, 6-(6′-t-butoxycarbonylamino-1′-oxo-2′-t-butoxycarbonylaminohexylamino)-3-(4-pyridyl)-2-(4-fluorophenyl)-7-aza-indole]: the IC50 was less than 20 µM.

Turning to `NCCCC[C@H](N)C(=O)Nc1ccc2c(-c3ccncc3)c(-c3ccc(F)cc3)[nH]c2n1` [Compound 67, 6-(6′-amino-1′-oxo-2′-aminohexylamino)-3-(4-pyridyl)-2-(4-fluorophenyl)-7-aza-indole], the IC50 was less than 20 µM.

Take `CC(C)(C)OC(=O)NCCC[C@H](NC(=O)OC(C)(C)C)C(=O)Nc1ccc2c(-c3ccncc3)c(-c3ccc(F)cc3)[nH]c2n1` [Compound 68, 6-(5′-t-butoxycarbonylamino-1′-oxo-2′-t-butoxycarbonylaminopentylamino)-3-(4-pyridyl)-2-(4-fluorophenyl)-7-aza-indole]: the IC50 was less than 20 µM.

Take `NCCC[C@H](N)C(=O)Nc1ccc2c(-c3ccncc3)c(-c3ccc(F)cc3)[nH]c2n1` [Compound 69, 6-(5′-amino-1′-oxo-2′-aminopentylamino)-3-(4-pyridyl)-2-(4-fluorophenyl)-7-aza-indole]: the IC50 was less than 20 µM.

Consider `N[C@@H](Cc1ccc(I)cc1)C(=O)Nc1ccc2c(-c3ccncc3)c(-c3ccc(F)cc3)[nH]c2n1` [Compound 71, 6-(3′-(4-iodophenyl)-1′-oxo-2′-aminopropylamino)-3-(4-pyridyl)-2-(4-fluorophenyl)-7-aza-indole], for which the IC50 is less than 1 µM.

As for `CC(C)[C@H](N)C(=O)Nc1ccc2c(-c3ccncc3)c(-c3ccc(F)cc3)[nH]c2n1` [Compound 73, 6-(3′-Methyl-1′-oxo-2′-aminobutylamino)-3-(4-pyridyl)-2-(4-fluorophenyl)-7-aza-indole], the IC50 is less than 20 µM.

Turning to `CC(C)(C)C[C@H](N)C(=O)Nc1ccc2c(-c3ccncc3)c(-c3ccc(F)cc3)[nH]c2n1` [Compound 75, 6-(4′,4′-Dimethyl-1′-oxo-2′-aminopentylamino)-3-(4-pyridyl)-2-(4-fluorophenyl)-7-aza-indole], the IC50 was less than 20 µM.

As for `NCCCCC(=O)Nc1ccc2c(-c3ccncc3)c(-c3ccc(F)cc3)[nH]c2n1` [Compound 77, 6-(5′-amino-1′-oxo-pentylamino)-3-(4-pyridyl)-2-(4-fluorophenyl)-7-aza-indole], the IC50 is less than 20 µM.

With `NCCCCCC(=O)Nc1ccc2c(-c3ccncc3)c(-c3ccc(F)cc3)[nH]c2n1` [Compound 79, 6-(6′-amino-1′-oxo-hexylamino)-3-(4-pyridyl)-2-(4-fluorophenyl)-7-aza-indole], the IC50 was less than 20 µM.

Turning to `N[C@@H](CC1CCCCC1)C(=O)Nc1ccc2c(-c3ccncc3)c(-c3ccc(F)cc3)[nH]c2n1` [Compound 81, 6-(3′-cyclohexyl-1′-oxo-2′-aminopropylamino)-3-(4-pyridyl)-2-(4-fluorophenyl)-7-aza-indole], the IC50 is less than 20 µM.

Consider `N[C@@H](CCC(=O)O)C(=O)Nc1ccc2c(-c3ccncc3)c(-c3ccc(F)cc3)[nH]c2n1` [Compound 83, 6-(4′-carboxy-1′-oxo-2′-aminobutylamino)-3-(4-pyridyl)-2-(4-fluorophenyl)-7-aza-indole], for which the IC50 was less than 20 µM.

In the case of `CC(O)[C@H](N)C(=O)Nc1ccc2c(-c3ccncc3)c(-c3ccc(F)cc3)[nH]c2n1` (some centres unmarked) [Compound 85, 6-(3′-hydroxy-1′-oxo-2′-aminobutylamino)-3-(4-pyridyl)-2-(4-fluorophenyl)-7-aza-indole], the IC50 is less than 20 µM.

Take `N[C@@H](Cc1ccc(O)cc1)C(=O)Nc1ccc2c(-c3ccncc3)c(-c3ccc(F)cc3)[nH]c2n1` [Compound 89, 6-(3′-(4-hydroxyphenyl)-1′-oxo-2′-aminopropylamino)-3-(4-pyridyl)-2-(4-fluorophenyl)-7-aza-indole]: the IC50 was less than 1 µM.

Take `NCCC(=O)Nc1ccc2c(-c3ccncc3)c(-c3ccc(F)cc3)[nH]c2n1` [Compound 91, 6-(3′-amino-1′-oxo-propylamino)-3-(4-pyridyl)-2-(4-fluorophenyl)-7-aza-indole]: the IC50 was less than 20 µM.

With `NCC(=O)Nc1ccc2c(-c3ccncc3)c(-c3ccc(F)cc3)[nH]c2n1` [Compound 92, 6-(2′-amino-1′-oxo-ethylamino)-3-(4-pyridyl)-2-(4-fluorophenyl)-7-aza-indole], the IC50 was less than 1 µM.

Regarding `CS(=O)(=O)Nc1ccc2c(-c3ccncc3)c(-c3ccc(F)cc3)[nH]c2n1` [Compound 93, 6-(methylsulfonylamino)-3-(4-pyridyl)-2-(4-fluorophenyl)-7-aza-indole], the IC50 is less than 20 µM.

`CC(=O)Nc1ccc2c(-c3ccncc3)c(-c3ccc(F)cc3)[nH]c2n1` [Compound 94, 6-(1′-oxo-ethylamino)-3-(4-pyridyl)-2-(4-fluorophenyl)-7-aza-indole]: the IC50 was less than 20 µM.
